Results as given in the NIST ThermoML archive (doi:10.1021/je100909b).
± gives the expanded uncertainty stated by the source.

Test: mn = molality of the nth substance listed, in mol/kg
Conditions: 101 kPa, Liquid; for speed of sound: Sing-around technique in a fixed-path interferometer

NCC(=O)O [2-aminoacetic acid] + O
Conditions	speed of sound [m/s]	viscosity [mPa·s]
288.15 K, m1 = 0.05362	1468.9 ± 1.6	–
288.15 K, m1 = 0.06844	–	1.149 ± 0.021
288.15 K, m1 = 0.1287	1473.1 ± 1.6	–
288.15 K, m1 = 0.1393	–	1.159 ± 0.021
288.15 K, m1 = 0.191	1476.6 ± 1.6	–
288.15 K, m1 = 0.2522	1480.1 ± 1.6	–
288.15 K, m1 = 0.2552	–	1.176 ± 0.021
288.15 K, m1 = 0.3423	1485.3 ± 1.6	–
288.15 K, m1 = 0.3468	–	1.19 ± 0.022
288.15 K, m1 = 0.4241	–	1.202 ± 0.022
288.15 K, m1 = 0.5002	–	1.213 ± 0.022
288.15 K, m1 = 0.5062	1494.9 ± 1.6	–
288.15 K, m1 = 0.562	1498.1 ± 1.6	–
298.15 K, m1 = 0.05362	1499.5 ± 1.6	–
298.15 K, m1 = 0.06025	–	0.8979 ± 0.017
298.15 K, m1 = 0.1223	–	0.9055 ± 0.017
298.15 K, m1 = 0.1287	1503.4 ± 1.6	–
298.15 K, m1 = 0.191	1506.8 ± 1.6	–
298.15 K, m1 = 0.1933	–	0.9138 ± 0.017
298.15 K, m1 = 0.2522	1510 ± 1.6	–
298.15 K, m1 = 0.2798	–	0.9248 ± 0.017
298.15 K, m1 = 0.3423	1514.9 ± 1.6	–
298.15 K, m1 = 0.4145	–	0.942 ± 0.018
298.15 K, m1 = 0.4859	–	0.9507 ± 0.018
298.15 K, m1 = 0.5062	1523.9 ± 1.6	–
298.15 K, m1 = 0.562	1526.9 ± 1.6	–
308.15 K, m1 = 0.05362	1522.5 ± 1.6	–
308.15 K, m1 = 0.06295	–	0.7261 ± 0.014
308.15 K, m1 = 0.1083	1525.3 ± 1.6	–
308.15 K, m1 = 0.1248	–	0.7325 ± 0.014
308.15 K, m1 = 0.1664	1528.2 ± 1.6	–
308.15 K, m1 = 0.2476	–	0.7455 ± 0.014
308.15 K, m1 = 0.263	1533.1 ± 1.6	–
308.15 K, m1 = 0.3345	–	0.7536 ± 0.015
308.15 K, m1 = 0.3737	1538.8 ± 1.6	–
308.15 K, m1 = 0.4195	–	0.7624 ± 0.015
308.15 K, m1 = 0.4709	–	0.7672 ± 0.015
308.15 K, m1 = 0.4967	1545.2 ± 1.6	–
318.15 K, m1 = 0.05362	1539 ± 1.6	–
318.15 K, m1 = 0.06088	–	0.6017 ± 0.012
318.15 K, m1 = 0.1248	–	0.6064 ± 0.012
318.15 K, m1 = 0.1287	1542.7 ± 1.6	–
318.15 K, m1 = 0.191	1545.7 ± 1.6	–
318.15 K, m1 = 0.2476	–	0.6176 ± 0.012
318.15 K, m1 = 0.2522	1548.7 ± 1.6	–
318.15 K, m1 = 0.3345	–	0.6253 ± 0.012
318.15 K, m1 = 0.3423	1553.1 ± 1.6	–
318.15 K, m1 = 0.4195	–	0.6329 ± 0.013
318.15 K, m1 = 0.4709	–	0.6356 ± 0.013
318.15 K, m1 = 0.5062	1561.3 ± 1.6	–
318.15 K, m1 = 0.562	1564.1 ± 1.6	–

CCC(N)C(=O)O (stereo not drawn) [(.+-.)-α-aminobutyric acid] + O
Conditions	speed of sound [m/s]	viscosity [mPa·s]
288.15 K, m1 = 0.05062	1469.9 ± 1.8	–
288.15 K, m1 = 0.05106	–	1.159 ± 0.021
288.15 K, m1 = 0.09089	–	1.181 ± 0.021
288.15 K, m1 = 0.1107	1474.7 ± 1.8	–
288.15 K, m1 = 0.1764	–	1.22 ± 0.022
288.15 K, m1 = 0.2175	1483.4 ± 1.8	–
288.15 K, m1 = 0.2253	–	1.242 ± 0.022
288.15 K, m1 = 0.2685	–	1.262 ± 0.023
288.15 K, m1 = 0.2738	1488 ± 1.8	–
288.15 K, m1 = 0.3587	1494.9 ± 1.8	–
288.15 K, m1 = 0.4044	–	1.324 ± 0.024
288.15 K, m1 = 0.4523	1502.7 ± 1.8	–
298.15 K, m1 = 0.03245	–	0.8996 ± 0.017
298.15 K, m1 = 0.05413	–	0.9064 ± 0.017
298.15 K, m1 = 0.07577	–	0.9126 ± 0.017
298.15 K, m1 = 0.108	–	0.9222 ± 0.017
298.15 K, m1 = 0.1107	1505.2 ± 1.8	–
298.15 K, m1 = 0.1433	–	0.9326 ± 0.017
298.15 K, m1 = 0.1888	–	0.9459 ± 0.018
298.15 K, m1 = 0.2162	–	0.9534 ± 0.018
298.15 K, m1 = 0.2175	1513.6 ± 1.8	–
298.15 K, m1 = 0.2738	1518 ± 1.8	–
298.15 K, m1 = 0.3587	1524.7 ± 1.8	–
298.15 K, m1 = 0.4523	1532.1 ± 1.8	–
308.15 K, m1 = 0.04831	–	0.731 ± 0.014
308.15 K, m1 = 0.05062	1523.4 ± 1.8	–
308.15 K, m1 = 0.08861	–	0.7438 ± 0.014
308.15 K, m1 = 0.1107	1527.7 ± 1.8	–
308.15 K, m1 = 0.1735	–	0.7667 ± 0.015
308.15 K, m1 = 0.2175	1535.4 ± 1.8	–
308.15 K, m1 = 0.2198	–	0.7794 ± 0.015
308.15 K, m1 = 0.2655	–	0.7915 ± 0.015
308.15 K, m1 = 0.2738	1539.4 ± 1.8	–
308.15 K, m1 = 0.3587	1545.5 ± 1.8	–
308.15 K, m1 = 0.3962	–	0.8261 ± 0.016
308.15 K, m1 = 0.4523	1552.3 ± 1.8	–
318.15 K, m1 = 0.04911	–	0.6052 ± 0.012
318.15 K, m1 = 0.05062	1539.9 ± 1.8	–
318.15 K, m1 = 0.08886	–	0.6122 ± 0.012
318.15 K, m1 = 0.1107	1544 ± 1.8	–
318.15 K, m1 = 0.1735	–	0.6267 ± 0.013
318.15 K, m1 = 0.2175	1551.2 ± 1.8	–
318.15 K, m1 = 0.2196	–	0.6354 ± 0.013
318.15 K, m1 = 0.2658	–	0.6432 ± 0.013
318.15 K, m1 = 0.2738	1555.1 ± 1.8	–
318.15 K, m1 = 0.3587	1560.9 ± 1.8	–
318.15 K, m1 = 0.3964	–	0.6658 ± 0.013
318.15 K, m1 = 0.4523	1567.3 ± 1.8	–

CC(N)C(=O)O (stereo not drawn) [DL-2-aminopropanoic acid] + O
Conditions	speed of sound [m/s]	viscosity [mPa·s]
288.15 K, m1 = 0.04982	–	1.153 ± 0.021
288.15 K, m1 = 0.07777	1471.3 ± 1.6	–
288.15 K, m1 = 0.1109	–	1.172 ± 0.021
288.15 K, m1 = 0.1126	1473.8 ± 1.6	–
288.15 K, m1 = 0.2059	1480.4 ± 1.6	–
288.15 K, m1 = 0.2183	–	1.204 ± 0.022
288.15 K, m1 = 0.2612	–	1.217 ± 0.022
288.15 K, m1 = 0.3107	–	1.231 ± 0.022
288.15 K, m1 = 0.3139	1488.1 ± 1.6	–
288.15 K, m1 = 0.3825	1493 ± 1.6	–
288.15 K, m1 = 0.4409	1497.2 ± 1.6	–
288.15 K, m1 = 0.4536	–	1.272 ± 0.023
288.15 K, m1 = 0.5099	–	1.29 ± 0.023
298.15 K, m1 = 0.07777	1501.8 ± 1.6	–
298.15 K, m1 = 0.07866	–	0.9082 ± 0.017
298.15 K, m1 = 0.1126	1504.1 ± 1.6	–
298.15 K, m1 = 0.1934	–	0.9331 ± 0.017
298.15 K, m1 = 0.2059	1510.4 ± 1.6	–
298.15 K, m1 = 0.3139	1517.7 ± 1.6	–
298.15 K, m1 = 0.3188	–	0.9584 ± 0.018
298.15 K, m1 = 0.3825	1522.3 ± 1.6	–
298.15 K, m1 = 0.4275	–	0.9832 ± 0.018
298.15 K, m1 = 0.4409	1526.3 ± 1.6	–
298.15 K, m1 = 0.5485	–	1.013 ± 0.019
298.15 K, m1 = 0.593	–	1.018 ± 0.019
298.15 K, m1 = 0.7354	–	1.057 ± 0.019
298.15 K, m1 = 0.8417	–	1.072 ± 0.02
298.15 K, m1 = 0.9533	–	1.089 ± 0.02
308.15 K, m1 = 0.04619	–	0.7279 ± 0.014
308.15 K, m1 = 0.07777	1524.6 ± 1.6	–
308.15 K, m1 = 0.107	–	0.7391 ± 0.014
308.15 K, m1 = 0.1126	1526.7 ± 1.6	–
308.15 K, m1 = 0.2059	1532.4 ± 1.6	–
308.15 K, m1 = 0.2145	–	0.7583 ± 0.015
308.15 K, m1 = 0.2578	–	0.7656 ± 0.015
308.15 K, m1 = 0.3071	–	0.7745 ± 0.015
308.15 K, m1 = 0.3139	1539.1 ± 1.6	–
308.15 K, m1 = 0.3489	–	0.7816 ± 0.015
308.15 K, m1 = 0.3825	1543.4 ± 1.6	–
308.15 K, m1 = 0.4409	1547 ± 1.6	–
308.15 K, m1 = 0.4983	–	0.8076 ± 0.015
318.15 K, m1 = 0.04529	–	0.6029 ± 0.012
318.15 K, m1 = 0.07777	1540.9 ± 1.6	–
318.15 K, m1 = 0.1064	–	0.6119 ± 0.012
318.15 K, m1 = 0.1126	1542.8 ± 1.6	–
318.15 K, m1 = 0.2059	1548.2 ± 1.6	–
318.15 K, m1 = 0.2141	–	0.6275 ± 0.013
318.15 K, m1 = 0.2564	–	0.6331 ± 0.013
318.15 K, m1 = 0.3064	–	0.6409 ± 0.013
318.15 K, m1 = 0.3139	1554.4 ± 1.6	–
318.15 K, m1 = 0.3492	–	0.647 ± 0.013
318.15 K, m1 = 0.3825	1558.4 ± 1.6	–
318.15 K, m1 = 0.4205	–	0.6561 ± 0.013
318.15 K, m1 = 0.4409	1561.8 ± 1.6	–
